Literature values as cited in patent US5180725A, “Quinoxalinyl/quinoxaliy; alkyl-N-terminal amino hydroxy” (G. D. Searle & Co., priority 1991, dated 1993).
Square brackets hold non-standard residues; d marks the D form. Peptide text beside a SMILES is read from it. * marks the point of attachment. Sta = CC(C)C[C@H](N)[C@@H](O)CC(=O)O; Isovaleryl = CC(C)CC(=O)*

Test system: hog renin
Settings: after the injection of hog renin into nephrectomized rats

Compound: CC(C)CC(=O)N[C@H](C(=O)N[C@H](C(=O)N[C@@H](CC(C)C)[C@@H](O)CC(=O)N[C@@H](C)C(=O)N[C@@H](CC(C)C)[C@@H](O)CC(=O)O)C(C)C)C(C)C [pepstatin] (Isovaleryl-VV[Sta]A[Sta]-OH)
- blood pressure in vivo: found to reduce blood pressure in vivo
